The results in this text go back to US20040063725A1, “Novel n(phenylsulphonyl)glycine derivatives and their therapeutic use” (priority 2001, published 2004).

Where a name gives a salt, the structure may show the parent alone.

The test system of the test is formaldehyde-induced pain. As to the kind of experiment: formaldehyde-induced pain test in the mouse (formalin test). The class given is in vivo. As to conditions: formaldehyde 0.92% in paw, licking time 15 to 30 min. The method, then: The compounds of the present invention were evaluated for their analgesic property in the formaldehyde-induced pain test in the mouse (Shibata, M., Ohkubo, T., Takahashi, H. & R. Inoki. Modified formalin test: characteristic biphasic pain response. Pain, 38. 347-352). In summary, an administration of formaldehyde (0.92% in physiological serum) is made in the front paw and the licking time, which reflects the intensity of the pain, is recorded from 0 to 5 min (1st phase) and from 15 to 30 min (2nd phase) after the injection. The percentage inhibition of the second phase of licking induced by the formaldehyde is given, for some compounds according to the invention, in the following Table: […]

On to `Cc1c(Cl)ccc(S(=O)(=O)N(CCc2ccccc2)CC(=O)NCC(=O)N(CCC2CCNCC2)Cc2ccc(C(=N)N)cc2)c1Cl.O=C(O)C(F)(F)F.O=C(O)C(F)(F)F` [Example 24, N-[2-[[[4-(aminoiminomethyl)phenyl]methyl](4-piperidinylethyl)amino]-2-oxoethyl]-2-[[(2,4-dichloro-3-methylphenyl)sulphonyl](2-phenylethyl)-amino]acetamide, bis Trifluoroacetate], for which, under “10 mg/kg s.c.”, the “% inhibition of the 2nd licking phase” value is reported as 76%.

Take “N-[2-[[[4-(aminoiminomethyl)phenyl]methyl][3-(dimethylamin)propyl]amino]-2-oxoethyl]-2-[[(2,4-dichloro-3-methylphenyl)sulphonyl](2-phenylethyl)amino]acetamide, Dihydrochloride [Example 23]”: the “% inhibition of the 2nd licking phase” value (30 mg/kg s.c.) turned out to be 98%.

On to `Cc1c(Cl)ccc(S(=O)(=O)N(CCc2ccccc2)CC(=O)NCC(=O)N(CCCCN2CCCC2)CCCc2cnc[nH]2)c1Cl` [Example 82, 2-[[(2,4-dichloro-3-methylphenyl)sulphonyl](2-phenylethyl)amino]-N-[2-[[3-(1H-imidazol-5-yl)propyl][4-(1-pyrrolidinyl)butyl]amino]-2-oxo-ethyl]acetamide, Dihydrochloride], for which, where the note is “10 mg/kg i.p.”, the “% inhibition of the 2nd licking phase” value came out at 63%.

Regarding `Cc1c(Cl)ccc(S(=O)(=O)N(CCc2ccccc2)CC(=O)NCC(=O)N(CCCN(C)C)Cc2ccc(C3=NCCN3)cc2)c1Cl` [Example 35, 2-[[(2,4-dichloro-3-methylphenyl)sulphonyl](2-phenylethyl)amino]-N-[2-[[[4-(4,5-dihydro-1H-imidazol-2-yl)phenyl]methyl][3-(dimethylamino)propyl]amino]-2-oxoethyl]acetamide, Dihydrochloride], the “% inhibition of the 2nd licking phase” value (10 mg/kg s.c.) was 92%.

For the compound “N-[2-[(4-aminobutyl)(4-piperidinylmethyl)amino]-2-oxoethyl]-2-[[(2,4-dichloro-3-methylphenyl)sulphonyl](2-phenylethyl)amino]acetamide, Bis Trifluoroacetate [Example 25]”, the “% inhibition of the 2nd licking phase” value (30 mg/kg s.c.) is listed as 87%.
